How the values were obtained:
[1] = tested on: mouse Lin−Sca1+c-Kit+CD48− cells; experiment: In vitro HSC culture, cell counting and live/dead viability assay (mouse); assay type: cell-based
Protocol: (§1) A. Schematic of treatment protocol. C57BL/6 mice were injected with three different doses of AZA (1.25, 2.5 and 5 mg/kg/d) for 3 days. 24 h after last AZA injection BM was analyzed for HSC-depletion and Ki67 intracellular protein expression. B. Overlay histogram of Ki67 intracellular protein expression in LT-HSC (gated from live, Lin^−Sca1^+c-Kit^+CD150^+CD48^− cells) in mice treated with AZA 1.25 mg/kg, 2.5 mg/kg and 5 mg/kg/d for 3 consecutive days. C. Mean fluorescence intensity (MFI) of Ki67 intracellular protein expression in LT-HSC, ST-HSC, MPP2, MPP3/4 and myeloid progenitors (MP). Data were pooled from 2 independent experiments and represent mean±SD (n=7). Statistics were calculated Mann-Whitney test (*P<0.05; **P<0.01; ***P<0.001). […] After 48 h % live/dead cells was assessed by using EarlyTox Live/Dead Assay Kit. E. Proliferation curves of FACS-sorted mouse Lin^−Sca1^+c-Kit^+CD48^− in the presence of indicated concentrations of AZA (left) and cell viability as assessed by % of Calcein AM positive cells after 48 h of cell culture (right). […] Statistics were calculated with Mann-Whitney test (*P<0.05; **P<0.01; ***P<0.001). F. Proliferation curves of FACS-sorted human Lin^−CD34^+CD38^− cells in the presence of indicated concentrations of AZA (left) and cell viability as assessed by % of Calcein AM positive cells after 48 h of cell culture (right). […]

[2] = tested on: Lin−Sca1+c-Kit+ cells (LSK); experiment: Annexin V/PI staining of HSPC fractions after AZA in vivo; parameters: species or system mice; conditions: AZA 1.25, 2.5 and 5 mg/kg/d for 3 days
Protocol: Analysis was performed 24 h after last AZA administration. Gated from LSK. (B) Annexin V+(left) and AnnexinV/PI+(right) cells shown as % from LSK in the three different dose groups as compared to untreated controls. Data were pooled from 2 independent experiments and represent mean±SD (n=4 in the control group and n=7 in the AZA groups). Statistics were calculated Mann-Whitney test (*P<0.05; **P<0.01).
In vivo direct killing by apoptosis was confirmed by flow cytometry using Annexin V/PI to stain the HSPC fractions.

[3] = tested on: human Lin−CD34+CD38− cells; experiment: In vitro HSC culture, cell counting and live/dead viability assay (human); assay type: cell-based
Protocol: as §1

[4] = AZA 0.1, 0.5 and 1 μg/ml at baseline and 24 h, 48 h culture with SCF and TPO
[5] = AZA concentrations 0.1 μg/ml, 48 h

In the case of Nc1ncn([C@@H]2O[C@H](CO)[C@@H](O)[C@H]2O)c(=O)n1 [AZA, 5-Azacytidine], the “number of cells in culture” value [1, 4] is reported as “reduced the number of cells in a dose dependent manner”, the “cell viability by Calcein AM” value [1, 5] is reported as “significant decrease in cell viability” and the “apoptosis and apoptotic cell death in the HSPC compartment” value [2] is reported as “dose dependent”. The “number of cells in culture” value [3, 4] was “reduced the number of cells in a dose dependent manner” and the “cell viability by Calcein AM” value [3, 5] was “significant decrease in cell viability”.

From US12564609B2, “Hematopoietic stem cell engraftment with a combination of agents” (The Board of Trustees of the Leland Stanford Junior …, priority 2020, dated 2026)
